Reference: patent EP4752149A1, “OXYGEN-CONTAINING FUSED TRICYCLIC DERIVATIVE, AND PREPARATION METHOD THEREFOR AND USE THEREOF” (Tuojie Biotech (Shanghai) Co., Ltd., priority 2023, dated 2025)

How the values were obtained:
[1] = test system: Human non-small cell lung cancer cells (A549); test: Inhibitory activity against human non-small cell lung cancer cells (A549), CTG cell viability; format: cell-based; conditions: Homo sapiens, 120 h, 5 days with compound
Protocol: (§1) Human non-small cell lung cancer cells (A549) were cultured using an F12K culture medium containing 10% FBS in a cell incubator (37 °C, 5% CO2). On day one, the cells were plated in a 384-well plate at a cell concentration of 300 cells/well and cultured overnight in an incubator. On day two, the cells were treated with compounds. The highest compound concentration was 10 µM and was diluted 3-fold to obtain 9 concentrations, and the final concentration of DMSO was 0.2%. After the cells were cultured in the incubator for another 5 days, the cell viability was tested using a CTG Cell Viability Detection Reagent; the testing method was consistent with the method provided by the kit. Data were processed using XLFit, and IC50 was calculated. [formula] X: the logarithm of the compound concentration; Y: % inhibition. Table 10. The IC50 (nM) of a compound of the present disclosure against A549

[2] = test system: Human breast cancer cells (MDA-MB-231); test: Inhibitory activity against human breast cancer cells (MDA-MB-231), CTG cell viability; format: cell-based; conditions: Homo sapiens, 168 h, 7 days with compound
Protocol: Human breast cancer cells (MDA-MB-231) were cultured using a DMEM culture medium containing 10% FBS in a cell incubator (37 °C, 5% CO2). On day one, the cells were plated in a 384-well plate at a cell concentration of 600 cells/well and cultured overnight in an incubator. On day two, the cells were treated with compounds. The highest compound concentration was 10 µM and was diluted 3-fold to obtain 9 concentrations, and the final concentration of DMSO was 0.2%. After the cells were cultured in the incubator for another 7 days, the cell viability was tested using a CTG Cell Viability Detection Reagent; the testing method was consistent with the method provided by the kit. Data were processed using XLFit, and IC50 was calculated. [formula] X: the logarithm of the compound concentration; Y: % inhibition. Table 8. The IC50 (nM) of a compound of the present disclosure against MDA-MB-231

CDK2/CycE1 = biological target: T1, CDK2/CycE1 (Homo sapiens, UniProt P24941); test: Activity against cyclin-dependent kinase CDK2/CycE1 (Caliper EZ Reader mobility shift); format: biochemical; conditions: 1 h at room temperature; highest concentration 1 µM
T1 construct: purchased Carna 04-165
Protocol: (§2) The test compounds (the highest concentration was 1 µM) were added using Echo 650 and serially diluted 3-fold to obtain a total of 9 concentration points. The assay plate was sealed and centrifuged at 1000 g for 1 min. 2.5× enzymes were prepared in a 1× kinase buffer (50 mM HEPES, pH 7.5, 0.0015% Brij-35, […]), and the 2.5× enzymes (10 µL) were added to the 384-well assay plate. The plate was centrifuged at 1000 g for 30 s and left to stand at room temperature for 10 min. 2.5× substrate and ATP mixtures were prepared in the 1× kinase buffer, and the 2.5× substrate and ATP mixtures (10 µL) were added to start reactions. The assay plate was centrifuged at 1000 g for 30 s, sealed, and incubated at room temperature for 1 h. 25 µL of a stop solution reagent (100 mM HEPES, pH 7.5, 0.015% Brij-35, 0.2% Coating Reagent #3, 50 mM EDTA) was added.
(§3) Conversion rate data were read on a CaliperEZ Reader. The conversion rate data were copied from the CaliperEZ Reader. The conversion rates were converted to inhibition rate data. Inhibition% = (max−conversion)/(max−min) × 100, [formula] where "min" is the reading of a control sample well to which no enzyme was added for reaction; "max" is the reading of a control well to which DMSO was added.
(§4) IC50 values were obtained by fitting using XLFit excel add-in version 5.4.0.8. Y = Bottom + (Top−Bottom)/(1+((IC50/X))^(∧)HillSlope). [formula] Table 6. […]

[3] = test system: Human prostate cancer cells (22RV1); test: Inhibitory activity against human prostate cancer cells (22RV1), CTG cell viability; format: cell-based; conditions: Homo sapiens, 120 h, 5 days with compound
Protocol: as §1, with “prostate” for “non-small cell lung”, “(22RV1)” for “(A549)”, “RPMI 1640” for “F12K”, “500” for “300”, “12.” for “10.”, “22RV1” for “A549”

CDK4/CycD1 = biological target: T2, CDK4/CycD1 (Homo sapiens, UniProt P11802); test: Activity against cyclin-dependent kinase CDK4/CycD1 (Caliper EZ Reader mobility shift); format: biochemical; conditions: 1 h at room temperature; highest concentration 1 µM
T2 construct: purchased Invitrogen PR8064A
Protocol: as §2, §3, §4

MCF-7/Palbo-R = test: Inhibitory activity against CDK4/6 inhibitor-resistant human breast cancer cells (MCF-7 palbociclib-resistant cell line), cell viability; format: cell-based; conditions: Homo sapiens, MCF7, 120 h, 5 days with compound, CellTiter-Glo cell viability
Protocol: MCF-7/Palbo-R cell source: MCF7 cells (Nanjing Cobioer Biosciences Co., Ltd.) were treated with 1 µM palbociclib for a long time, and drug resistance was induced.
The palbociclib-resistant breast cancer cell line MCF-7/Palbo-R was cultured using a DMEM culture medium containing 10% FBS in a cell incubator (37 °C, 5% CO2). On day one, the cells were plated in a 384-well plate at a cell concentration of 800 cells/well and cultured overnight in an incubator. On day two, the cells were treated with compounds. The highest compound concentration was 10 µM and was diluted 3-fold to obtain 9 concentrations, and the final concentration of DMSO was 0.2%. After the cells were cultured in the incubator for another 5 days, the cell viability was tested using a CellTiter-Glo luminescent cell viability assay kit; the testing method was consistent with the method provided by the kit. Data were processed using XLfit, and IC50 was calculated.
The inhibition rates (IR) of the test compounds were calculated using the following formula: IR (%) = (1 - (RLU compound - RLU blank control) / (RLU vehicle control-RLU blank control)) × 100%. Table 16. The IC50 (nM) of a compound of the present disclosure against MCF-7/Palbo-R

T2 sequence (P11802 whole entry): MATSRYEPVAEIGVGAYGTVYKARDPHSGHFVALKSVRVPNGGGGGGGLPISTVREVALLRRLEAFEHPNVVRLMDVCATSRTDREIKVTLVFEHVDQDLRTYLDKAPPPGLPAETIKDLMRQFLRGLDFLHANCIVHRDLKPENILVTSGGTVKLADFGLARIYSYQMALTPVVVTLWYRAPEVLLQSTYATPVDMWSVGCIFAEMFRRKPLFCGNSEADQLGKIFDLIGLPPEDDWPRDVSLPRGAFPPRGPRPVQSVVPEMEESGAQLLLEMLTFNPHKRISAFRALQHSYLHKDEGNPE
T2 sequence (P24385 whole entry partner): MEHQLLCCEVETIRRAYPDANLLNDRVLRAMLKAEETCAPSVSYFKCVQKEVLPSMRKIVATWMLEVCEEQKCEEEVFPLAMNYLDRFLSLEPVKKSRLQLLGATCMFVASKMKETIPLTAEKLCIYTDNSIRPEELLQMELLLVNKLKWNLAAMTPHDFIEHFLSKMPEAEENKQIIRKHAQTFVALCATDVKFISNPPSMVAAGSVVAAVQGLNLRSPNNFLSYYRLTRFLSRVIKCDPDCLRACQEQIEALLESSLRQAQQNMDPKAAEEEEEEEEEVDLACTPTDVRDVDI

IC50 [1]: 236 nM
IC50 [2]: 117 nM
IC50 (CDK2/CycE1): 9.8 nM
IC50 [3]: 80.3 nM
IC50 (CDK4/CycD1): 3.8 nM
IC50 (MCF-7/Palbo-R): 180 nM
Compound: C[C@H]1COc2c(-c3nc(Nc4ccc(N5CCOCC5=O)cc4F)ncc3Cl)cc(F)c3nc(C(C)(C)O)n1c23 [Example 1, (S)-4-(4-((5-Chloro-4-(8-fluoro-2-(2-hydroxypropan-2-yl)-3-methyl-3,4-dihydro-5-oxa-1,2a-diazaacenaphthylen-6-yl)pyrimidin-2-yl)amino)-3-fluorophenyl)morpholin-3-one]
